# In paper PMC4317219 (Pharmacology Research & Perspectives, 2014):
# Columns and labels:
# [1] = tested on: Sprague-Dawley rats, i.c.v. ouabain-induced hyperactivity; experiment: Ouabain-induced hyperactivity; format: in vivo, rat; details: acute; cariprazine 1.0 mg/kg i.p. aCSF vs. saline aCSF (no ouabain); P < 0.05
# [2] = target: mouse D2R-long form (mD2LR) (Mus musculus, UniProt P61168); experiment: cell-based
# [3] = cited from earlier work
# [4] = after an i.p. injection, ref [1976]
# Chain of mouse D2R-long form (mD2LR) (P61168 whole entry): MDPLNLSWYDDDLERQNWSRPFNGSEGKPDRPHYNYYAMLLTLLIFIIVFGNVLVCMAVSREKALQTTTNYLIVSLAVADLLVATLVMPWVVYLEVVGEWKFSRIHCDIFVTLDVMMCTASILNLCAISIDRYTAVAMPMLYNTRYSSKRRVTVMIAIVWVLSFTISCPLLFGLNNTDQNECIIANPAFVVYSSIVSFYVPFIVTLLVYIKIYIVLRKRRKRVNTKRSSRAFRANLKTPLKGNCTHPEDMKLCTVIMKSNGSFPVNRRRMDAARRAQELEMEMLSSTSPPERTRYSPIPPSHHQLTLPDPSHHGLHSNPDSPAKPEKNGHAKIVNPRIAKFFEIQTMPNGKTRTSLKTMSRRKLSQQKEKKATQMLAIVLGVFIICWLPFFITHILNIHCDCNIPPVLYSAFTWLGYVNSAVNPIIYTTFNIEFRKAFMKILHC
Structure (SMILES),sedation: inhibition of open field activity [1],EC50 [2],"lithium levels achieved in the rats ([3]; 6.75 mEq/kg i.p. then 2.4 g/kg of food for 7 days, ref [2003])","time to maximum brain levels [3, 4]","time to maximum serum level [3, 4]"
CN(C)C(=O)N[C@H]1CC[C@H](CCN2CCN(c3cccc(Cl)c3Cl)CC2)CC1 [Cariprazine],72%,1.4 ± 0.1 nM,–,–,–
[Li] [lithium],–,–,1.01 ± 0.18 mmol/L,≤ 8 h,≤ 0.5 h
